In patent publication US20180311297A1, “PHARMACEUTICAL COMPOSITION FOR INCREASING CONTENT AND AVAILABILITY OF CYCLIC ADENOSINE MONOPHOSPHATE IN A BODY AND PREPARATION THEREOF” (priority 2012, published 2018):
Where a name gives a salt, the structure may show the parent alone.

What was measured:
depression patients = settings: STAR*D study, over 2800 depression patients; cited from earlier work
forced-swim rats = experiment: forced-swim experiment on rats; assay type: in vivo, rat; settings: intragastric, one week; Embodiment 1 medium dose 30 mg/kg/d, or positive control; vs control P<0.05
Excerpt: (§1) The inventor conducted animal behavior experiments, including the tail-hang experiment on mice, the forced-swim experiment on rats, the forced-swim experiment on mice, the unpredictable long-term stimulus experiment on rats, the olfactory bulb lesion experiment on rats and others, according to the pathogenetic mechanism and clinical symptoms of depression.

cAMP = experiment: level of cAMP in hippocampus of normal rats 8 hours after administration (ELISA); assay type: in vivo, rat; settings: 8 hours after intragastric 5 mg/kg (positive control drug)
Protocol: 8 hours after normal rats were intragastrically administered with the pharmaceutical of Embodiment 1, their hippocampi were taken out. The variations in the levels of cAMP and phospho-CREB (p-CREB) in the hippocampus were determined using enzyme-linked immunosorbent assay (ELISA), the variations on the activities of the cAMP-dependent PKA were determined using bioluminescent assay, and the variations in the activities of PDE were determined using a fluorescence method. […] The experimental data were statistically analyzed and plotted using Origin […].5 software. 2. […] The sample was determined using the ParameterTM Cyclic AMP Assay ELISA kit (R&D Systems, Inc., U.S.). The sample was defrosted to room temperature, and the level of cAMP in the sample was determined using competitive ELISA. The value of optical density (OD) of the sample was determined at 450 nm using the multi-mode microplate reader, and the level of cAMP in the sample was calculated according to the standard curve. 5.1 The level of cAMP in the rat's hippocampus: The cAMP concentration in the homogenate of the rat's hippocampus was determined using the ELISA assay, and the level of cAMP contained in the hippocampus tissue was obtained by dividing the […], and is presented as pmol/g tissue (referring to FIG. 5).

[1] = test system: unpredictably long-term stressed rats; experiment: unpredictable long-term stimulus (CUMS) experiment on rats: open field box test; assay type: in vivo, rat; settings: CUMS model rats, 21 consecutive days; low dose of Embodiment 1 (15 mg/kg/d) or positive group; vs control P<0.01
Excerpt: (§2) The inventor conducted animal behavior experiments, including the tail-hang experiment on mice, the forced-swim experiment on rats, the forced-swim experiment on mice, the unpredictable long-term stimulus experiment on rats, the olfactory bulb lesion experiment on rats and others, according to the pathogenetic mechanism and clinical symptoms of depression. 1.2 The pharmaceutical composition of Embodiment 1 was intragastrically administered to rats under the chronic unpredictable mild stress (CUMS) model with the dose of 15 mg/kg/d, 30 mg/kg/d and 60 mg/kg/d for 21 consecutive days.

[2] = test system: unpredictably long-term stressed rats; experiment: unpredictable long-term stimulus (CUMS) experiment on rats: sucrose intake measurement; assay type: in vivo, rat; settings: CUMS model rats, 21 consecutive days; low dose of Embodiment 1 (15 mg/kg/d) or positive group; vs control P<0.01
Excerpt: as §2

[3] = test system: olfactory bulb lesion model rats; experiment: olfactory bulb lesion experiment: open field box test; assay type: in vivo, rat; settings: 24 consecutive days, high dose of Embodiment 1 (60 mg/kg/d) or Paroxetine of 3 mg/kg/d, compared to control group
Excerpt: The inventor conducted animal behavior experiments, including the tail-hang experiment on mice, the forced-swim experiment on rats, the forced-swim experiment on mice, the unpredictable long-term stimulus experiment on rats, the olfactory bulb lesion experiment on rats and others, according to the pathogenetic mechanism and clinical symptoms of depression. 1.3 The pharmaceutical composition of Embodiment 1 was intragastrically administered to olfactory bulb lesion model rats with the dose of 15 mg/kg/d, 30 mg/kg/d and 60 mg/kg/d for 24 consecutive days.

[4] = test system: unpredictably long-term stressed rats; experiment: unpredictable long-term stimulus (CUMS) experiment on rats: jumping test; assay type: in vivo, rat; settings: CUMS model rats, 21 consecutive days; low dose of Embodiment 1 (15 mg/kg/d) or positive group; vs control P<0.01
Excerpt: as §2

tail-hanged mice = experiment: tail-hang experiment on mice; assay type: in vivo; settings: intragastric, one week; Embodiment 1 medium dose 40 mg/kg/d, or positive control; vs control P<0.05
Excerpt: as §1

forced-swim mice = experiment: forced-swim experiment on mice; assay type: in vivo; settings: intragastric, one week; Embodiment 1 medium dose 40 mg/kg/d, or positive control; vs control P<0.05
Excerpt: as §1

[5] = test system: unpredictably long-term stressed rats; experiment: unpredictable long-term stimulus (CUMS) experiment on rats: body weight measurement; assay type: in vivo, rat; settings: CUMS model rats, 21 consecutive days; low dose of Embodiment 1 (15 mg/kg/d) or positive group; compared to control group
Excerpt: as §2

[6] = test system: phosphodiesterase 4 (PDE4); settings: cited from earlier work

Q: Which remission rate (depression patients) does the source give for Cl.O=C1CC2(CCCC2)CC(=O)N1CCCCN1CCN(c2ncccn2)CC1 [Buspar®] here?
A: The remission rate was “about 30%”.

Q: Which remission rate (depression patients) does the source give for Br.CN(C)CCCC1(c2ccc(F)cc2)OCc2cc(C#N)ccc21 (stereo not shown) [Celexa®] here?
A: The remission rate was “about 30%”.

Q: For COc1ccc(C(CN(C)C)C2(O)CCCCC2)cc1.Cl (stereo not shown) [Effexor®], which remission rate (depression patients) is on record?
A: Its remission rate is “about 30%”.

Q: Which “non-movement time for the forced-swim rats” value (forced-swim rats) does the source give for Fc1ccc([C@@H]2CCNC[C@H]2COc2ccc3c(c2)OCO3)cc1 [Paroxetine, Paroxetine hydrochloride] here?
A: Its value is “significantly shorter”.

Q: What about the “initiation of the cAMP-PKA-CREB (p-CREB) pathway” value (cAMP) of the same compound?
A: The value was “cannot initiate”.

Q: What about the “horizontal movement and vertical movement” value [1] of the same compound?
A: The value was “significantly increased”.

Q: And the sucrose consumption [2]?
A: Its sucrose consumption is “significantly increased”.

Q: What about the “decrease of the horizontal movement and vertical movement caused by the olfactory bulb lesion (open field box test)” value [3] of the same compound?
A: The value was “significantly improved”.

Q: What about the “number of errors in rat jumping trial” value [4] of the same compound?
A: The value was “significantly decreased”.

Q: What about the “non-movement time for the tail-hanged mice” value (tail-hanged mice) of the same compound?
A: Its value is “significantly shorter”.

Q: What about the “non-movement time for the forced-swim mice” value (forced-swim mice) of the same compound?
A: Its value is “significantly shorter”.

Q: And the body weight gains [5]?
A: Its body weight gains is “significantly increased”.

Q: For COc1ccc(C2CNC(=O)C2)cc1OC1CCCC1 (stereo not shown) [Rolipram®], which side effects ([6]; background statement) is on record?
A: The side effects was “severe emesis”.

Q: And the anti-depression effect ([6]; experimental results referred to in background)?
A: Its anti-depression effect is “significant anti-depression effect”.

Q: For CC(NC(C)(C)C)C(=O)c1cccc(Cl)c1.Cl (stereo not shown) [Wellbutrin®], which remission rate (depression patients) is on record?
A: Its remission rate is “about 30%”.

Q: For CN[C@H]1CC[C@@H](c2ccc(Cl)c(Cl)c2)c2ccccc21.Cl [Zoloft®], which remission rate (depression patients) is on record?
A: Its remission rate is “about 30%”.
